Measurements: patent US6432948B1, “USE OF 7-(2-OXA-5,8-DIAZABICYLCO[4.3.0]NON-8-YL)-QUINOLONE CARBOXYLIC ACID AND NAPHTHYRIDON CARBOXYLIC ACID DERIVATIVES FOR THE TREATMENT OF HELIOBACTER PYLORI INFECTIONS AND ASSOCIATED GASTRODUODENAL DISEASES” (Bayer Aktiengesellschaft, priority 1996, dated 2002)
In brackets after ≈: the same amount, converted by molar mass. Read-outs that look alike come from different tables or passages of the source. Values belong to the compound of their own block, whether it stands above or below them.

Columns and labels:
H. felis ATCC 49179 = details: for Eradication of H. felis in the mouse model, monotherapy: therapeutically used doses; for Clearance % / Clearance (animals cleared / animals per group): infected mice, 2 × 10 mg/kg, 70 day treatment as printed in table title (7 days elsewhere in the source), 5 animals per group
Procedure: The bacteria are administered by stomach tube as a suspension (0.1 ml containing 10^8-10^9 bacteria) 4 times in the course of 7 days. Alternatively to this, stomach homogenates of previously infected mice were used for infection.
3-5 days after establishment of the infection, the treatment with test preparations was begun. […] In some cases, the bacterial eradication was also determined 2-4 weeks after the end of treatment. Following the “CLO” test used in clinical diagnosis, a urease test on a microtitre basis was employed. Defined stomach biopsy samples were tested for colour change within 24 hours.

H. pylori NCTC 1163 7 = test: MIC, agar dilution test; format: cell-based; details: Helicobacter pylori
Procedure: . The test substances were tested in replica dishes, which contained falling concentrations of the active compound at in each case doubled dilution. For inoculation, fresh Helicobacter cultures from liquid culture or suspension of the bacteria from agar plates were used. The inoculated agar plates were incubated at 37° C. in an atmosphere containing 5-10% of CO2 for 48-72 hours. The MIC value (mg/l) which was read off indicates the lowest active compound concentration at which no growth was to be detected using the naked eye. The following Helicobacter isolates were used: H. felis ATCC 49179, H. pylori NCTC 1163 7, H. pylori clinical isolate 008.

[1] = test system: H. pylori clinical isolate 008; test: MIC, agar dilution test; format: cell-based; details: Helicobacter pylori, Columbia agar or Basis 2 agar with 10% lysed horse blood, 37° C., 48-72 hours, read-out: MIC (mg/l) H. pylori 008
Procedure: For inoculation, fresh Helicobacter cultures from liquid culture or suspension of the bacteria from agar plates were used. The inoculated agar plates were incubated at 37° C. in an atmosphere containing 5-10% of CO2 for 48-72 hours.

[2] = NCTC1163, agar dilution test, Columbia agar or Basis 2 agar with 10% lysed horse blood, 37° C., 48-72 hours, read-out: MIC (mg/l) H. pylori 11637

Structure (SMILES): O=C(O)c1cn(C2CC2)c2c(Cl)c(N3C[C@@H]4CCCN[C@@H]4C3)c(F)cc2c1=O [BAY Y 3118, 8-chloro-1-cyclopropyl-7-([S,S]-2,8-diazabicyclo[4.3.0]non-8-yl)-6-fluoro-1,4-dihydro-4-oxo-3-quinolinecarboxylic acid, reference compound]
Death of animals on account of toxicity at eradicating treatment (H. felis ATCC 49179; mouse model, monotherapeutic treatment): a large part of the animals not dying on account of the toxicity of the compound
Eradication of H. felis in the mouse model, monotherapy (H. felis ATCC 49179; monotherapeutic treatment): no eradication of H. felis can be achieved

Structure (SMILES): O=C(O)c1cn(C2CC2)c2cc(N3CCNCC3)c(F)cc2c1=O [Ciprofloxacin, ciprofloxacin, reference compound]
MIC (H. pylori NCTC 1163 7; NCTC1163, read-out: MIC (mg/l) H. pylori 11637): 0.125 mg/L (≈ 0.377 µM)
Eradication of H. felis in the mouse model, monotherapy (H. felis ATCC 49179; monotherapeutic treatment): not able to lead to an eradication

Structure (SMILES): N#Cc1c(N2CC3NCCOC3C2)c(F)cc2c(=O)c(C(=O)O)cn(C3CC3)c12 (centres unmarked) [Example 1A]
MIC [1]: 0.06 mg/L (≈ 0.151 µM)
Eradication of the bacterium (H. felis ATCC 49179; 10-day treatment of the mice with 2×10 mg/kg): eradication of the bacterium
Clearance % (H. felis ATCC 49179): 100%
Clearance (animals cleared / animals per group) (H. felis ATCC 49179): 5/5

Structure (SMILES): CN1COc2c(N3CC4NCCOC4C3)c(F)cc3c(=O)c(C(=O)O)cn1c23 [Example 2, 9-Fluoro-3-methyl-10-((1S,6S)-2-oxa-5,8-diazabicyclo[4.3.0]non-8-yl)-7-oxo-2,3-dihydro-7H-pyrido[1,2,3-d.e][1,3,4]benzoxadiazine-6-carboxylic acid]
MIC [1]: 0.06 mg/L (≈ 0.154 µM)
Clearance % (H. felis ATCC 49179): 100%
Clearance (animals cleared / animals per group) (H. felis ATCC 49179): 5/5

Structure (SMILES): COc1c(N2C[C@@H]3NCCO[C@@H]3C2)c(F)cc2c(=O)c(C(=O)O)cn(C3CC3)c12.Cl [Example 6, 1-Cyclopropyl-6-fluoro-8-methoxy-7-[(1R,6S)-2-oxa-5,8-diazabicyclo[4.3.0]non-8-yl]-1,4-dihydro-4-oxo-3-quinolinecarboxylic acid hydrochloride]
MIC [1]: 0.06 mg/L
MIC (H. pylori NCTC 1163 7; [2]): 0.06 mg/L

Structure (SMILES): O=C(O)c1cn(C2CC2)c2c(OC(F)F)c(N3CC4NCCOC4C3)c(F)cc2c1=O [Example 8, 1-Cyclopropyl-8-difluoromethoxy-6-fluoro-1,4-dihydro-7-((1S,6S)-2-oxa-5 8-diazabicyclo[4.3.0]non-8-yl)-4-oxo-3-quinolinecarboxylic acid]
MIC [1]: 0.06 mg/L (≈ 0.137 µM)
MIC (H. pylori NCTC 1163 7; [2]): 0.06 mg/L (≈ 0.137 µM)

Structure (SMILES): CCn1cc(C(=O)O)c(=O)c2cc(F)c(N3CCNC(C)C3)c(F)c21 (centres unmarked) [lomefloxacin, reference compound]
Eradication of H. felis in the mouse model, monotherapy (H. felis ATCC 49179; monotherapeutic treatment): not able to lead to an eradication

The remaining lines, values ahead:

melting point: 275 to 280 °C (dec.)
Structure (SMILES): Cl.O=C(O)c1cn([C@@H]2C[C@@H]2F)c2c(F)c(N3C[C@@H]4NCCO[C@@H]4C3)c(F)cc2c1=O

melting point: 210 to 215 °C (dec.)
Structure (SMILES): Cl.O=C(O)c1cn([C@@H]2C[C@@H]2F)c2c(Cl)c(N3C[C@@H]4NCCO[C@@H]4C3)c(F)cc2c1=O

melting point: 236 to 238 °C (dec.)
Structure (SMILES): O=C(O)c1cn([C@@H]2C[C@@H]2F)c2cc(N3C[C@@H]4NCCO[C@@H]4C3)c(F)cc2c1=O (mixture of isomers) [Example 15, 6-Fluoro-1-(cis-2-fluorocyclopropyl)-1,4-dihydro-7-((1R,6S)-2-oxa-5,8-diazabicyclo[4.3.0]non-8-yl)-4-oxo-3-quinolinecarboxylic acid]

melting point: 270 to 274 °C (dec.)
Structure (SMILES): O=C(O)c1cn([C@@H]2C[C@H]2F)c2cc(N3C[C@@H]4NCCO[C@@H]4C3)c(F)cc2c1=O (mixture of isomers) [Example 19, 6-Fluoro-1-(trans-2-fluorocyclopropyl)-1,4-dihydro-7-((1 R,6S)-2-oxa-5,8-diazabicyclo[4.3.0]non-8-yl)-4-oxo-3-quinolinecarboxylic acid]

melting point: 160 to 164 °C (dec.)
Structure (SMILES): O=C(O)c1cn([C@@H]2C[C@H]2F)c2c(Cl)c(N3C[C@@H]4NCCO[C@@H]4C3)c(F)cc2c1=O (mixture of isomers) [Example 20, 8-Chloro-6-fluoro-1-(trans-2-fluorocyclopropyl)-1,4-dihydro-7-((1R,6S)-2-oxa-5,8-diazabicyclo[4.3.0]non-8-yl)-4-oxo-3-quinolinecarboxylic acid]

melting point: 310 to 314 °C (dec.)
Structure (SMILES): O=C(O)c1cn([C@@H]2C[C@H]2F)c2nc(N3C[C@@H]4NCCO[C@@H]4C3)c(F)cc2c1=O (mixture of isomers) [Example 21, 6-Fluoro-1-(trans-2-fluorocyclopropyl)-1,4-dihydro-7-((1R,6s)-2-oxa-5,8-diazabicyclo[4.3.0]non-8-yl)-4-oxo-1,8-naphthyridine-3-carboxylic acid]

MIC [1]: 0.25 mg/L (≈ 0.588 µM)
MIC (H. pylori NCTC 1163 7; [2]): 0.06 mg/L (≈ 0.141 µM)
Structure (SMILES): CC(CF)(CF)n1cc(C(=O)O)c(=O)c2cc(F)c(N3C[C@@H]4NCCO[C@@H]4C3)cc21 [Example 4, 1-(1-Fluoromethyl-1-methyl-2-fluoroethyl)-6-fluoro-7-[(1R,6S)-2-oxa-5,8-diazabicyclo[4.3.0]non-8-yl]-1,4-dihydro-4-oxo-3-quinolinecarboxylic acid]

MIC [1]: 0.125 mg/L
MIC (H. pylori NCTC 1163 7; [2]): 0.06 mg/L
Structure (SMILES): COc1c(N2C[C@@H]3NCCO[C@H]3C2)c(F)cc2c(=O)c(C(=O)O)cn(C3CC3)c12.Cl [Example 13]
